6 molecules from the supplement of paper PMC11061612 can be followed below.

Assay [1] concerns RVH-421 (Melanoma). The experiment in a line: combination Emax (second highest fraction inhibited in the dose matrix, 72 h); higher = more inhibition; extreme values may be limits of the assay. The essentials: (§1)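 Cell lines grown in DMEM/F12 or RPMI with 10% FBS were plated in 1536-well plates and held 24 hours at 37°C, 5% CO2 before 72 hours of exposure to two-drug dose matrices, with DMSO typically at 0.2%. CellTiter-Glo 2.0 luminescence gave viability, which was converted to inhibition. Vehicle wells were set to 0 and blank wells to 1. Combination Emax is the second-highest inhibition in the matrix, and Bliss excess is the observed combination effect minus the expected EA + EB − EA·EB, where EA and EB are the single-agent effects.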

The test system of assay [2] is HT-1197 (Bladder Carcinoma). As to the kind of experiment: Bliss excess, mean over the matrix (fraction); higher = more synergy. The essentials:
as §1

The subject of assay [3] is BT-474 (Breast Carcinoma). The assay is described as above. Put shortly: as §1
For assay [4], the system named is TOV-21G (Ovarian Carcinoma). Described as above. The essentials: as §1
A further assay relates to SK-MEL-24 (Melanoma). The description is as above. The essentials:
as §1

Assay [5] relates to NCI-H1048 (Small Cell Lung Carcinoma). The description is as above. Put shortly: as §1
The test system of assay [6] is SW1463 (Colorectal Carcinoma). Described as above. The essentials: as §1
The subject of a further assay is C32 (Melanoma). The assay is described as above. Put shortly: as §1
The test system of assay [7] is OVKATE (Ovarian Carcinoma). Described as above. The essentials:
as §1

Assay [8] deals with NCI-H2023 (Non-Small Cell Lung Carcinoma). The assay is described as above. Put shortly: as §1
The subject of the next assay is DK-MG (Glioblastoma). The description is as above. The essentials: as §1
Assay [9] has as its system SNU-1 (Gastric Carcinoma). The description is as above. Put shortly:
as §1

The next assay concerns A375 (Melanoma). Described as above. Put shortly: as §1
Assay [10] has as its system KNS-62 (Squamous Cell Lung Carcinoma). The assay is described as above. Put shortly:
as §1

For assay [11], the system named is RVH-421 (Melanoma). The description is as above. The essentials:
as §1

Assay [12] relates to MDA-MB-175-VII (Breast Carcinoma). The description is as above. Put shortly: as §1

In the case of `CC1(C)CCC(CN2CCN(c3ccc(C(=O)NS(=O)(=O)c4ccc(NCC5CCOCC5)c([N+](=O)[O-])c4)c(Oc4cnc5[nH]ccc5c4)c3)CC2)=C(c2ccc(Cl)cc2)C1` [Venetoclax] + C=CCn1c(=O)c2cnc(Nc3ccc(N4CCN(C)CC4)cc3)nc2n1-c1cccc(C(C)(C)O)n1 [AZD1775] (first compound max 1 µM, partner max 1 µM), the “combination Emax” value with RVH-421 (Melanoma) [1] is 0.183. For the same molecule, the Bliss excess in assay [2] was -0.001; in assay [3], -0.0668; in assay [4], -0.0261; in the assay with SK-MEL-24 (Melanoma), -0.0473; in [5] it was 0.0212; in assay [6] it was -0.0942. The Bliss excess in the assay on C32 (Melanoma) is 0.0075; in assay [7], -0.0169; in assay [8], 0.0053; in the assay on DK-MG (Glioblastoma), -0.0003; in assay [9], -0.0156; in the assay on A375 (Melanoma), -0.0142. Moreover, the Bliss excess is -0.0106 in assay [10], -0.0875 with RVH-421 (Melanoma) [11] and -0.0111 in [12].
As for `C=CCn1c(=O)c2cnc(Nc3ccc(N4CCN(C)CC4)cc3)nc2n1-c1cccc(C(C)(C)O)n1` [AZD1775] + O=C(c1cc(Cc2n[nH]c(=O)c3ccccc23)ccc1F)N1CCN(C(=O)C2CC2)CC1 [Olaparib] (first compound max 1 µM, partner max 10 µM), in the assay with RVH-421 (Melanoma) [1], the “combination Emax” value amounted to 0.253. Also, the Bliss excess was -0.0023 in assay [2]; -0.0611 in assay [3]; -0.0126 in assay [4]; -0.0194 in the assay on SK-MEL-24 (Melanoma); -0.0389 in assay [5]; -0.0418 in assay [6]. Further, the Bliss excess in the assay on C32 (Melanoma) is -0.0271; in assay [7] it was -0.0316; in assay [8], -0.039; in the assay with DK-MG (Glioblastoma), -0.054; in assay [9], -0.0425; in the assay on A375 (Melanoma) it was -0.0161. For the same molecule, the results for the Bliss excess (in assay [10]; in the assay on RVH-421 (Melanoma) [11]; in assay [12]) were -0.0293, -0.105 and -0.0351, respectively.
As for `CC1(C)CCC(CN2CCN(c3ccc(C(=O)NS(=O)(=O)c4ccc(NCC5CCOCC5)c([N+](=O)[O-])c4)c(Oc4cnc5[nH]ccc5c4)c3)CC2)=C(c2ccc(Cl)cc2)C1` [Venetoclax] + C[C@@H](Nc1cc(F)cc(F)c1)c1cc(C(=O)N(C)C)cc2c(=O)cc(N3CCOCC3)oc12 [AZD8186] (first compound max 1 µM, 7x7, partner max 3 µM), in the assay with RVH-421 (Melanoma) [1], the “combination Emax” value worked out at 0.326. The Bliss excess in [2] was -0.0785; in [3] it was -0.055; in assay [4], -0.0271; in the assay with SK-MEL-24 (Melanoma), -0.0585; in [5] it was 0.018; in assay [6] it was -0.0393. In addition, the Bliss excess with C32 (Melanoma) was -0.0207; in assay [7], -0.0334; in assay [8] it was -0.0539; in the assay on DK-MG (Glioblastoma), -0.0425; in [9] it was -0.0157; with A375 (Melanoma), -0.0326. For the same molecule, the Bliss excess is -0.0545 in assay [10], -0.0084 in the assay on RVH-421 (Melanoma) [11] and -0.0321 in assay [12].
Regarding `Cc1c2c(nn1C)CSCc1cc(n(C)n1)CSc1cc(c3ccccc3c1)OCCCc1c(C(=O)O)n(C)c3c-2c(Cl)ccc13` [AZD5991] + Cn1cnc2c(F)c(Nc3ccc(Br)cc3Cl)c(C(=O)NOCCO)cc21 [Selumetinib] (first compound max 1 µM, 7x7, partner max 3 µM), the “combination Emax” value in the assay on RVH-421 (Melanoma) [1] was found to be 0.449. In addition, the Bliss excess is -0.0375 in [2]; -0.0205 in [3]; 0.0121 in [4]; 0.0006 in the assay with SK-MEL-24 (Melanoma); -0.0224 in assay [5]; -0.0352 in assay [6]. In addition, the Bliss excess is 0.0678 in the assay on C32 (Melanoma); -0.0724 in assay [7]; 0.0293 in assay [8]; 0.0143 in the assay with DK-MG (Glioblastoma); 0.0926 in [9]; 0.0086 with A375 (Melanoma). The Bliss excess is -0.0171 in assay [10], -0.0194 with RVH-421 (Melanoma) [11] and -0.0217 in assay [12].
As for `Cc1c2c(nn1C)CSCc1cc(n(C)n1)CSc1cc(c3ccccc3c1)OCCCc1c(C(=O)O)n(C)c3c-2c(Cl)ccc13` [AZD5991] + C=CCn1c(=O)c2cnc(Nc3ccc(N4CCN(C)CC4)cc3)nc2n1-c1cccc(C(C)(C)O)n1 [AZD1775] (first compound max 1 µM, partner max 1 µM), in the assay with RVH-421 (Melanoma) [1], the “combination Emax” value stood at 0.248. Also, the Bliss excess in assay [2] is -0.0866; in [3] it was -0.0298; in assay [4], -0.0865; with SK-MEL-24 (Melanoma), 0.0416; in assay [5] it was 0.0002; in assay [6] it was -0.0158. Also, the Bliss excess in the assay on C32 (Melanoma) is 0.0452; in assay [7], -0.0123; in assay [8], 0.0092; in the assay with DK-MG (Glioblastoma), 0.0168; in assay [9], -0.0237; in the assay with A375 (Melanoma), 0.0237. The Bliss excess was 0.0251 in [10], 0.0088 with RVH-421 (Melanoma) [11] and -0.0223 in [12].
`CN(C)CCCOc1ccc(-c2ccc3ncc4c(c3c2)n(C2CCOCC2)c(=O)n4C)cn1` [AZD0156] + C[C@@H]1COCCN1C2=NC(=NC(=C2)C3(CC3)[S@](=N)(=O)C)C4=C5C=CNC5=NC=C4 [AZD6738] (first compound max 1 µM, 7x7, partner max 10 µM): the “combination Emax” value with RVH-421 (Melanoma) [1] turned out to be 0.18. Moreover, the Bliss excess in [2] was -0.0362; in assay [3], -0.0416; in assay [4], 0.025; in the assay with SK-MEL-24 (Melanoma) it was -0.0159; in [5], -0.0129; in assay [6] it was -0.0057. The Bliss excess was -0.0323 in the assay on C32 (Melanoma); -0.0189 in assay [7]; -0.021 in [8]; 0.0346 in the assay with DK-MG (Glioblastoma); 0.0461 in assay [9]; 0.0378 in the assay on A375 (Melanoma). In addition, the results for the Bliss excess (in assay [10]; in the assay on RVH-421 (Melanoma) [11]; in assay [12]) were -0.0343, -0.0581 and -0.0122, respectively.
